Molecular target: SIK2 (Homo sapiens (Human), UniProt Q9H0K1)
Assay: SIK2 Enzymatic Assay Version 2 (High ATP)
Assay type: biochemical
Settings: 3 mM ATP and 200 μM HDAC5tide final, ADP-Glo Max luminescence
Method in brief: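 Luminescent ADP-Glo Max read-out: depletion reagent 2 h, then detection reagent 1 h. Before the reaction, compounds were incubated 30 min with enzyme added at 6 nM (twice final concentration), with all steps at room temperature.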

Chain of SIK2 (Q9H0K1 whole entry, species assumed): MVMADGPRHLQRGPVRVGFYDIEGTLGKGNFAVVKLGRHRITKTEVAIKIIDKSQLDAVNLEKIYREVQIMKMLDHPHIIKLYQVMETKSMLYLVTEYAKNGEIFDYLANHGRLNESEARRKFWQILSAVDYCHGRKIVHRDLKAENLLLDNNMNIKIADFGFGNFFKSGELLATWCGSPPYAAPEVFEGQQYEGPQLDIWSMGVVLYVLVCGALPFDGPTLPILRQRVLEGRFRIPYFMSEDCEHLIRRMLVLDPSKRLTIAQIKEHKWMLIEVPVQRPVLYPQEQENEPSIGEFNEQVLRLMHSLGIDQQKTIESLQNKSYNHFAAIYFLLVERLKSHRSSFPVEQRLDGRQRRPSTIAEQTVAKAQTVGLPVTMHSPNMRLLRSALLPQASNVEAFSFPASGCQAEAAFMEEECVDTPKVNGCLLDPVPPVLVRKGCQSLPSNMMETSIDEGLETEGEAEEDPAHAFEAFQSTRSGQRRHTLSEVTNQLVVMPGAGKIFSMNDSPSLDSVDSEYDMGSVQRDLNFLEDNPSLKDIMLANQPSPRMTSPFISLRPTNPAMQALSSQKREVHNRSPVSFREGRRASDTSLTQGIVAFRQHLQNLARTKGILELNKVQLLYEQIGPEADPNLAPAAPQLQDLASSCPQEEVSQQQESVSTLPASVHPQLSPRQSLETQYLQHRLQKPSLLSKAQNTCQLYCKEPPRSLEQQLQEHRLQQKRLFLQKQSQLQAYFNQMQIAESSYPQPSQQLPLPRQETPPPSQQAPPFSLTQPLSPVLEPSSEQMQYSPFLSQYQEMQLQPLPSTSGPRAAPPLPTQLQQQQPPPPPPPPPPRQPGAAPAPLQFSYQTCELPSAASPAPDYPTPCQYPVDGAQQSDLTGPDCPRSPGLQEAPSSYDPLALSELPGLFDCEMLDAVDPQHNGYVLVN

Row | SMILES | IC50 [µM]
1 | Cc1onc(OC[C@@]23C[C@@H](CO2)N(C)C3)c1-c1ccn2nc(NC(=O)C3CC3)cc2c1 [Example 203, N-[5-[5-methyl-3-[[(1S,4S)-2-methyl-5-oxa-2-azabicyclo[2.2.1]heptan-4-yl]methoxy]isoxazol-4-yl]pyrazolo[1,5-a]pyridin-2-yl]cyclopropanecarboxamide] | 0.0274
2 | Cc1onc(OC[C@H](N)c2ccccc2)c1-c1ccn2nc(NC(=O)C3CC3)cc2c1 [Example 204, N-[5-[3-[(2R)-2-amino-2-phenyl-ethoxy]-5-methyl-isoxazol-4-yl]pyrazolo[1,5-a]pyridin-2-yl]cyclopropanecarboxamide] | 0.0174
3 | COC1(COc2noc(C)c2-c2ccn3nc(NC(=O)C4CC4)cc3c2)CCNCC1 [Example 206, N-[5-[3-[(4-methoxy-4-piperidyl)methoxy]-5-methyl-isoxazol-4-yl]pyrazolo[1,5-a]pyridin-2-yl]cyclopropanecarboxamide] | 0.035
4 | Cc1onc(OC[C@H](c2ccccc2)N(C)C)c1-c1ccn2nc(NC(=O)C3CC3)cc2c1 [Example 207, N-[5-[3-[(2S)-2-(dimethylamino)-2-phenyl-ethoxy]-5-methyl-isoxazol-4-yl]pyrazolo[1,5-a]pyridin-2-yl]cyclopropanecarboxamide] | 0.0076
5 | Cc1onc(OC[C@H]2CCN2CC#N)c1-c1ccn2nc(NC(=O)C3CC3)cc2c1 [Example 213, N-[5-[3-[[(2R)-1-(cyanomethyl)azetidin-2-yl]methoxy]-5-methyl-isoxazol-4-yl]pyrazolo[1,5-a]pyridin-2-yl]cyclopropanecarboxamide] | 0.0153
6 | Cc1onc(OC[C@H]2CN(C)CC(C)(C)O2)c1-c1ccn2nc(NC(=O)C3CC3)cc2c1 [Example 214, N-[5-[5-methyl-3-[[(2R)-4,6,6-trimethylmorpholin-2-yl]methoxy]isoxazol-4-yl]pyrazolo[1,5-a]pyridin-2-yl]cyclopropanecarboxamide] | 0.0158
7 | Cc1onc(OC[C@@H](N)c2ccccc2F)c1-c1ccn2nc(NC(=O)C3CC3)cc2c1 [Example 220, N-[5-[3-[(2S)-2-amino-2-(2-fluorophenyl)ethoxy]-5-methyl-isoxazol-4-yl]pyrazolo[1,5-a]pyridin-2-yl]cyclopropanecarboxamide] | 0.0049
8 | Cc1onc(OC[C@H](N)c2ccccc2F)c1-c1ccn2nc(NC(=O)C3CC3)cc2c1 [Example 221, N-[5-[3-[(2R)-2-amino-2-(2-fluorophenyl)ethoxy]-5-methyl-isoxazol-4-yl]pyrazolo[1,5-a]pyridin-2-yl]cyclopropanecarboxamide] | 0.0232
9 | Cc1onc(OC[C@@H](c2ccccc2F)N(C)C)c1-c1ccn2nc(NC(=O)C3CC3)cc2c1 [Example 222, N-[5-[3-[(2R)-2-(dimethylamino)-2-(2-fluorophenyl)ethoxy]-5-methyl-isoxazol-4-yl]pyrazolo[1,5-a]pyridin-2-yl]cyclopropanecarboxamide] | 0.0275
10 | Cc1onc(OC[C@@H](N)c2ccccn2)c1-c1ccn2nc(NC(=O)C3CC3)cc2c1 [Example 223, N-[5-[3-[(2S)-2-amino-2-(2-pyridyl)ethoxy]-5-methyl-isoxazol-4-yl]pyrazolo[1,5-a]pyridin-2-yl]cyclopropanecarboxamide] | 0.0307
11 | CN[C@H](COc1noc(C)c1-c1ccn2nc(NC(=O)C3CC3)cc2c1)c1ccccn1 [Example 224, N-[5-[5-methyl-3-[(2S)-2-(methylamino)-2-(2-pyridyl)ethoxy]isoxazol-4-yl]pyrazolo[1,5-a]pyridin-2-yl]cyclopropanecarboxamide] | 0.0214
12 | Cc1onc(OC[C@@](C)(N)c2ccccc2)c1-c1ccn2nc(NC(=O)C3CC3)cc2c1 [Example 225, N-[5-[3-[(2S)-2-amino-2-phenyl-propoxy]-5-methyl-isoxazol-4-yl]pyrazolo[1,5-a]pyridin-2-yl]cyclopropanecarboxamide] | 0.012
13 | Cc1onc(OC[C@](C)(c2ccccc2)N(C)C)c1-c1ccn2nc(NC(=O)C3CC3)cc2c1 [Example 226, N-[5-[3-[(2S)-2-(dimethylamino)-2-phenyl-propoxy]-5-methyl-isoxazol-4-yl]pyrazolo[1,5-a]pyridin-2-yl]cyclopropanecarboxamide] | 0.0128
14 | Cc1onc(O[C@@H]2CN[C@@H]3CCCO[C@@H]32)c1-c1ccn2nc(NC(=O)C3CC3)cc2c1 [Example 227, (3R, 3aS, 7aR)—N-[5-[3-(1,2,3,3a,5,6,7,7a-octahydropyrano[3,2-b]pyrrol-3-yloxy)-5-methyl-isoxazol-4-yl]pyrazolo[1,5-a]pyridin-2-yl]cyclopropanecarboxamide] | 0.0349
15 | Cn1ncc(OC[C@@H]2CCNC2)c1-c1ccn2nc(NC(=O)C3CC3)cc2c1 [Example 229, N-[5-[2-methyl-4-[[(3R)-pyrrolidin-3-yl]methoxy]pyrazol-3-yl]pyrazolo[1,5-a]pyridin-2-yl]cyclopropanecarboxamide] | 0.0238
16 | Cn1ncc(OC[C@@H]2CNCCO2)c1-c1ccn2nc(NC(=O)C3CC3)cc2c1 [Example 230, N-[5-[2-methyl-4-[[(2S)-morpholin-2-yl]methoxy]pyrazol-3-yl]pyrazolo[1,5-a]pyridin-2-yl]cyclopropanecarboxamide] | 0.0418
17 | Cn1ncc(OCC2(N)CCC2)c1-c1ccn2nc(NC(=O)C3CC3)cc2c1 [Example 231, N-[5-[4-[(1-aminocyclobutyl)methoxy]-2-methyl-pyrazol-3-yl]pyrazolo[1,5-a]pyridin-2-yl]cyclopropanecarboxamide] | 0.0469
18 | C[C@@H]1C[C@H](Oc2cnn(C)c2-c2ccn3nc(NC(=O)C4CC4)cc3c2)CN1 [Example 233, N-[5-[2-methyl-4-[(3S,5R)-5-methylpyrrolidin-3-yl]oxy-pyrazol-3-yl]pyrazolo[1,5-a]pyridin-2-yl]cyclopropanecarboxamide] | 0.0302
19 | Cn1ncc(OC[C@@]23CN[C@@H](CO2)C3)c1-c1ccn2nc(NC(=O)C3CC3)cc2c1 [Example 234, N-[5-[2-methyl-4-[[(1R,4R)-5-oxa-2-azabicyclo[2.2.1]heptan-4-yl]methoxy]pyrazol-3-yl]pyrazolo[1,5-a]pyridin-2-yl]cyclopropanecarboxamide] | 0.0011
20 | Cn1ncc(OC[C@@H](N)c2ccccc2)c1-c1ccn2nc(NC(=O)C3CC3)cc2c1 [Example 235, N-[5-[4-[(2S)-2-amino-2-phenyl-ethoxy]-2-methyl-pyrazol-3-yl]pyrazolo[1,5-a]pyridin-2-yl]cyclopropanecarboxamide] | < 0.000847
21 | Cn1ncc(O[C@H]2CCNC2)c1-c1ccn2nc(NC(=O)C3CC3)cc2c1 [Example 236, N-[5-[2-methyl-4-[(3S)-pyrrolidin-3-yl]oxy-pyrazol-3-yl]pyrazolo[1,5-a]pyridin-2-yl]cyclopropanecarboxamide] | 0.0291
22 | Cn1ncc(OC[C@H](N)c2ccccc2)c1-c1ccn2nc(NC(=O)C3CC3)cc2c1 [Example 237, N-[5-[4-[(2R)-2-amino-2-phenyl-ethoxy]-2-methyl-pyrazol-3-yl]pyrazolo[1,5-a]pyridin-2-yl]cyclopropanecarboxamide] | 0.0107
23 | CN1CCC[C@@H]1COc1cnn(C)c1-c1ccn2nc(NC(=O)C3CC3)cc2c1 [Example 239, N-[5-[2-methyl-4-[[(2R)-1-methylpyrrolidin-2-yl]methoxy]pyrazol-3-yl]pyrazolo[1,5-a]pyridin-2-yl]cyclopropanecarboxamide] | 0.0227
